Reference: PubChem BioAssay AID248 (DTP/NCI, 2004)
Values joined by “and” are separate entries in the source; they are usually repeats but may differ in a detail not shown here. Equal entries are not always repeated. Inconclusive results and toxic doses are left out. Cut-off read from the data, not from the text of the source: active = T/C of 150% or more; inactive = T/C below 125%.

Tested on: L1210 leukemia ip in BDF1 mice, survival T/C
Test: NCI In Vivo Anticancer Drug Screen. Data for tumor model L1210 Leukemia (intraperitoneal) in B6D2F1 (BDF1) mice
Settings: endpoint: mean survival time, higher = longer survival
Procedure, shortened: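 Ratio derived from survival: compound-dosed mice over vehicle-dosed mice, all bearing a transplantable tumor.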

[1] = dose: 100.0 mg/kg/injection, schedule: Q01DX001 (ip), vehicle: other
[2] = dose: 200.0 mg/kg/injection, schedule: Q01DX001 (ip), vehicle: other
[3] = dose: 400.0 mg/kg/injection, schedule: Q01DX001 (ip), vehicle: other
[4] = dose: 50.0 mg/kg/injection, schedule: Q01DX001 (ip), vehicle: carboxymethylcellulose (CMC)
[5] = dose: 100.0 mg/kg/injection, schedule: Q01DX001 (ip), vehicle: carboxymethylcellulose (CMC)
[6] = dose: 200.0 mg/kg/injection, schedule: Q01DX001 (ip), vehicle: carboxymethylcellulose (CMC)
[7] = dose: 400.0 mg/kg/injection, schedule: Q01DX001 (ip), vehicle: carboxymethylcellulose (CMC)
[8] = dose: 100.0 mg/kg/injection, schedule: Q01DX001 (ip), vehicle: saline
[9] = dose: 200.0 mg/kg/injection, schedule: Q01DX001 (ip), vehicle: saline
[10] = dose: 400.0 mg/kg/injection, schedule: Q01DX001 (ip), vehicle: saline
[11] = dose: 100.0 mg/kg/injection, schedule: Q01DX001 (ip), vehicle: Klucel (hydroxypropylcellulose) (HPC)

Measured: T/C

Cc1cc2nc(C(O)C(O)C(O)C(O)c3nc4cc(C)c(C)cc4[nH]3)[nH]c2cc1C (stereo not given)
inactive: [1] 98 % of control | [2] 87 % of control | [3] 104 % of control

Nc1cc(Cl)nc(Cl)n1
inactive: dose: 29.0 mg/kg/injection, schedule: Q01DX Z (ip), vehicle: methylcellulose (MC) 89 % of control | dose: 45.0 mg/kg/injection, schedule: Q01DX Z (ip), vehicle: methylcellulose (MC) 100 % of control | dose: 67.0 mg/kg/injection, schedule: Q01DX Z (ip), vehicle: methylcellulose (MC) 96 % of control | dose: 100.0 mg/kg/injection, schedule: Q01DX Z (ip), vehicle: methylcellulose (MC) 92 % of control

CCCCCCCC(=O)NC1CCC(C(C)(C)C)CC1 (stereo not given)
inactive: dose: 100.0 mg/kg/injection, schedule: Q01DX009 (ip), vehicle: other 100 % of control | dose: 200.0 mg/kg/injection, schedule: Q01DX009 (ip), vehicle: other 97 % of control | dose: 400.0 mg/kg/injection, schedule: Q01DX009 (ip), vehicle: other 106 % of control

C/C=N\NC(N)=O
inactive: dose: 25.0 mg/kg/injection, schedule: Q04DX003 (ip), vehicle: saline 94 % of control | dose: 50.0 mg/kg/injection, schedule: Q04DX003 (ip), vehicle: saline 100 % of control

CC(=O)OC1=C(CC(C)(C)C)C(=O)c2ccccc2C1=O
inactive: [4] 103 % of control | [5] 103 % of control | [6] 100 % of control | [7] 105 % of control

Cc1cc([N+](=O)[O-])c2ccccc2c1N
inactive: dose: 100.0 mg/kg/injection, schedule: Q01DX009 (ip), vehicle: saline with Tween-80 117 % of control | dose: 200.0 mg/kg/injection, schedule: Q01DX009 (ip), vehicle: saline with Tween-80 98 % of control | dose: 400.0 mg/kg/injection, schedule: Q01DX009 (ip), vehicle: saline with Tween-80 105 % of control

O=Cc1ccc([N+](=O)[O-])cc1Cl
inactive: dose: 75.0 mg/kg/injection, schedule: Q01DX001 (ip), vehicle: other 111 % of control | dose: 150.0 mg/kg/injection, schedule: Q01DX001 (ip), vehicle: other 94 % of control | dose: 300.0 mg/kg/injection, schedule: Q01DX001 (ip), vehicle: other 97 % of control

Oc1ccccc1C=NCCN=Cc1ccccc1O.[Cu]
inactive: [1] 97 % of control | dose: 100.0 mg/kg/injection, schedule: Q04DX002 (ip), vehicle: saline 99 % of control | [2] 103 % of control | dose: 200.0 mg/kg/injection, schedule: Q04DX002 (ip), vehicle: saline 99 % of control | [3] 94 % of control | dose: 400.0 mg/kg/injection, schedule: Q04DX002 (ip), vehicle: saline 96 % of control

Cc1c(C)n(C2OC(CO)C(O)C2O)c(=O)[nH]c1=O (stereo not given)
inactive: [8] 96 % of control | [9] 108 % of control | [10] 93 % of control

CC(C)(NCc1ccccc1)C(=O)c1ccccc1
inactive: [4] 100 % of control | dose: 50.0 mg/kg/injection, schedule: Q04DX003 (ip), vehicle: Klucel (hydroxypropylcellulose) (HPC) 95 % of control | [5] 102 % of control | dose: 100.0 mg/kg/injection, schedule: Q01DX009 (ip), vehicle: Klucel (hydroxypropylcellulose) (HPC) 105 % of control | dose: 100.0 mg/kg/injection, schedule: Q04DX003 (ip), vehicle: Klucel (hydroxypropylcellulose) (HPC) 93 % of control | [6] 90 % of control | dose: 200.0 mg/kg/injection, schedule: Q04DX003 (ip), vehicle: Klucel (hydroxypropylcellulose) (HPC) 95 % of control

CCCCCCC(=O)N(C(C)C)C(C)C
inactive: [5] 100 % of control | dose: 100.0 mg/kg/injection, schedule: Q01DX009 (ip), vehicle: carboxymethylcellulose (CMC) 103 % of control and 104 % of control | dose: 100.0 mg/kg/injection, schedule: Q04DX002 (ip), vehicle: carboxymethylcellulose (CMC) 98 % of control and 103 % of control | dose: 100.0 mg/kg/injection, schedule: Q04DX003 (ip), vehicle: carboxymethylcellulose (CMC) 104 % of control | [6] 98 % of control | dose: 200.0 mg/kg/injection, schedule: Q01DX009 (ip), vehicle: carboxymethylcellulose (CMC) 97 % of control and 100 % of control | dose: 200.0 mg/kg/injection, schedule: Q04DX002 (ip), vehicle: carboxymethylcellulose (CMC) 93 % of control and 98 % of control | dose: 200.0 mg/kg/injection, schedule: Q04DX003 (ip), vehicle: carboxymethylcellulose (CMC) 102 % of control | [7] 88 % of control | dose: 400.0 mg/kg/injection, schedule: Q01DX009 (ip), vehicle: carboxymethylcellulose (CMC) 93 % of control | dose: 400.0 mg/kg/injection, schedule: Q04DX002 (ip), vehicle: carboxymethylcellulose (CMC) 92 % of control

CCCCCCCCCCCC(=O)OCCOCCOCCOCCOCCOCCOCCOCCOCCO
inactive: [8] 104 % of control | [9] 98 % of control | [10] 98 % of control

Cc1ccccc1-n1c(O)c(N=Nc2ccc(Br)cc2)c(=O)n(-c2ccccc2)c1=S
inactive: [11] 94 % of control | dose: 200.0 mg/kg/injection, schedule: Q01DX001 (ip), vehicle: Klucel (hydroxypropylcellulose) (HPC) 94 % of control | dose: 400.0 mg/kg/injection, schedule: Q01DX001 (ip), vehicle: Klucel (hydroxypropylcellulose) (HPC) 91 % of control

O=[N+]([O-])c1cccc(/C=N/N2CCN(/N=C/c3cccc([N+](=O)[O-])c3)CC2)c1
inactive: [8] 102 % of control | [9] 92 % of control | [10] 96 % of control

Cc1ccc(S(=O)(=O)N2CCC(Br)(Br)C(=O)c3ccccc32)cc1
inactive: dose: 100.0 mg/kg/injection, schedule: Q01DX009 (ip), vehicle: saline 97 % of control | dose: 200.0 mg/kg/injection, schedule: Q01DX009 (ip), vehicle: saline 100 % of control | dose: 400.0 mg/kg/injection, schedule: Q01DX009 (ip), vehicle: saline 102 % of control

S=C(NCc1ccccc1)[S][Sn]([S]C(=S)NCc1ccccc1)([c]1ccccc1)[c]1ccccc1
inactive: dose: 5.0 mg/kg/injection, schedule: Q01DX001 (ip), vehicle: steriod suspending solution 98 % of control | dose: 10.0 mg/kg/injection, schedule: Q01DX001 (ip), vehicle: steriod suspending solution 97 % of control | dose: 20.0 mg/kg/injection, schedule: Q01DX001 (ip), vehicle: steriod suspending solution 106 % of control

O=[N+]([O-])c1ccc(N/N=C/C23CC4CC(CC(C4)C2)C3)c([N+](=O)[O-])c1
inactive: dose: 3.12 mg/kg/injection, schedule: Q04DX002 (ip), vehicle: Klucel (hydroxypropylcellulose) (HPC) 121 % of control | dose: 6.25 mg/kg/injection, schedule: Q04DX002 (ip), vehicle: Klucel (hydroxypropylcellulose) (HPC) 110 % of control | dose: 12.5 mg/kg/injection, schedule: Q04DX002 (ip), vehicle: Klucel (hydroxypropylcellulose) (HPC) 113 % of control | dose: 25.0 mg/kg/injection, schedule: Q04DX002 (ip), vehicle: Klucel (hydroxypropylcellulose) (HPC) 94 % of control | [11] 98 % of control

O=C(O)c1ccc(NCc2cccc(N=Cc3ccccc3)c2)cc1
inactive: dose: 100.0 mg/kg/injection, schedule: Q01DX001 (ip), vehicle: saline with Tween-80 93 % of control | dose: 200.0 mg/kg/injection, schedule: Q01DX001 (ip), vehicle: saline with Tween-80 93 % of control | dose: 400.0 mg/kg/injection, schedule: Q01DX001 (ip), vehicle: saline with Tween-80 103 % of control

CC(=O)Nc1cc(Cl)c([N+](=O)[O-])cc1C
inactive: dose: 100.0 mg/kg/injection, schedule: Q04DX002 (ip), vehicle: Klucel (hydroxypropylcellulose) (HPC) 110 % of control | dose: 200.0 mg/kg/injection, schedule: Q04DX002 (ip), vehicle: Klucel (hydroxypropylcellulose) (HPC) 113 % of control | dose: 400.0 mg/kg/injection, schedule: Q04DX002 (ip), vehicle: Klucel (hydroxypropylcellulose) (HPC) 103 % of control
